Experimental data: ChEMBL document CHEMBL3046598, “In vitro antimicrobial and molecular docking of dichloro substituted benzoxazole derivatives” (2012)
≈ marks a conversion by molar mass, not a printed value.

Tests used:
Format in all cases: functional
Bacillus subtilis = experiment: Antibacterial activity against Bacillus subtilis NCIM 2920 after 24 hr by agar well diffusion method; details: NCIM 2920, 24 h
Staphylococcus aureus = experiment: Antibacterial activity against Staphylococcus aureus NCIM 5022 after 24 hr by agar well diffusion method; details: NCIM 5022, 24 h
Proteus vulgaris = experiment: Antibacterial activity against Proteus vulgaris NCIM 2857 after 24 hr by agar well diffusion method; details: NCIM 2857, 24 h
Pseudomonas aeruginosa = experiment: Antibacterial activity against Pseudomonas aeruginosa NCIM 2945 after 24 hr by agar well diffusion method; details: NCIM 2945, 24 h
Salmonella typhi = experiment: Antibacterial activity against Salmonella enterica subsp. enterica serovar Typhi ATCC 19430 after 24 hr by agar well diffusion method; details: ATCC 19430, 24 h
Escherichia coli = experiment: Antibacterial activity against Escherichia coli NCIM 5051 after 24 hr by agar well diffusion method; details: NCIM 5051, 24 h

Row | SMILES | MIC (Bacillus subtilis) [µg/mL] | MIC (Staphylococcus aureus) [µg/mL] | MIC (Proteus vulgaris) [µg/mL] | MIC (Pseudomonas aeruginosa) [µg/mL] | MIC (Salmonella typhi) [µg/mL] | MIC (Escherichia coli) [µg/mL]
1 | Sc1nc2cc(Cl)cc(Cl)c2o1 | 6.25 (≈ 28.4 µM) | 25 (≈ 114 µM) | 3.12 (≈ 14.2 µM) | 3.12 (≈ 14.2 µM) | 50 (≈ 227 µM) | 3.12 (≈ 14.2 µM)
2 | CCOC(=O)CSc1nc2cc(Cl)cc(Cl)c2o1 | 3.12 (≈ 10.2 µM) | 25 (≈ 81.7 µM) | 6.25 (≈ 20.4 µM) | 3.12 (≈ 10.2 µM) |  | 6.25 (≈ 20.4 µM)
3 | NNc1nc2cc(Cl)cc(Cl)c2o1 | 6.25 (≈ 28.7 µM) | 6.25 (≈ 28.7 µM) | 3.12 (≈ 14.3 µM) |  |  | 50 (≈ 229 µM)
4 | S=c1[nH]nc2oc3c(Cl)cc(Cl)cc3n12 | 3.12 (≈ 12 µM) | 3.12 (≈ 12 µM) | 6.25 (≈ 24 µM) | 3.12 (≈ 12 µM) | 50 (≈ 192 µM) | 3.12 (≈ 12 µM)
5 | CCOC(=O)CSc1nnc2oc3c(Cl)cc(Cl)cc3n12 | 3.12 (≈ 9.03 µM) | 6.25 (≈ 18.1 µM) | 3.12 (≈ 9.03 µM) | 3.12 (≈ 9.03 µM) | 50 (≈ 144 µM) | 3.12 (≈ 9.03 µM)
6 | O=[N+]([O-])c1ccc(NCn2nc3oc4c(Cl)cc(Cl)cc4n3c2=S)cc1 | 6.25 (≈ 15.2 µM) | 3.12 (≈ 7.62 µM) | 6.25 (≈ 15.2 µM) | 3.12 (≈ 7.62 µM) |  | 
7 | O=C(O)c1cn(C2CC2)c2cc(N3CCNCC3)c(F)cc2c1=O [CIPROFLOXACIN] | 3.12 (≈ 9.43 µM) | 3.12 (≈ 9.43 µM) | 3.12 (≈ 9.43 µM) | 3.12 (≈ 9.43 µM) | 6.25 (≈ 18.9 µM) | 3.12 (≈ 9.43 µM)
